Results taken from patent US8772504B2, “Substituted benzoxazole, benzimidazole, oxazolopyridine and imidazopyridine derivatives as gamma secretase modulators” (Janssen Pharmaceuticals, Inc., priority 2009, dated 2014).

What was measured:
Type in all cases: cell-based
Aβtotal = test: Screening for γ-secretase-modulating activity, Method 2: Aβtotal Alphalisa on SKNBE2 cell supernatant; conditions: Method 2, Table 3c, SKNBE2 cells carrying APP 695 wild type, overnight incubation
Experimental: (§1) Screening was carried out using SKNBE2 cells carrying the APP 695—wild type, grown in Dulbecco's Modified Eagle's Medium/Nutrient mixture F-12 (DMEM/NUT-mix F-12) (HAM) provided by Invitrogen (cat no. 10371-029) containing 5% Serum/Fe supplemented with 1% non-essential amino acids, 1-glutamine 2 mM, Hepes 15 mM, penicillin 50 U/ml (units/ml) en streptomycin 50 μg/ml. Cells were grown to near confluency.
(§2) The screening was performed using a modification of the assay as described in Citron et al (1997) Nature Medicine 3: 67. Briefly, cells were plated in a 384-well plate at 10^4 cells/well in Ultraculture (Lonza, BE12-725F) supplemented with 1% glutamine (Invitrogen, 25030-024), 1% non-essential amino acid (NEAA), penicillin 50 U/ml en streptomycin 50 μg/ml in the presence of test compound at different test concentrations. The cell/compound mixture was incubated overnight at 37° C., 5% CO2. The next day the media were assayed by two sandwich immuno-assays, for Aβ42 and Aβtotal.
(§3) Aβtotal and Aβ42 concentrations were quantified in the cell supernatant using the Aphalisa technology (Perkin Elmer). Alphalisa is a sandwich assay using biotinylated antibody attached to streptavidin coated donorbeads and antibody conjugated to acceptor beads. In the presence of antigen, the beads come into close proximity. The excitation of the donor beads provokes the release of singlet oxygen molecules that trigger a cascade of energy transfer in the acceptor beads, resulting in light emission. To quantify the amount of Aβ42 in the cell supernatant, monoclonal antibody specific to the C-terminus of Aβ42 (JRF/cAβ42/26) was coupled to the receptor beads and biotinylated antibody specific to the N-terminus of Aβ (JRF/AβN/25) was used to react with the donor beads. To quantify the amount of Aβtotal in the cell supernatant, monoclonal antibody specific to the N-terminus of Aβ (JRF/AβN/25) was coupled to the receptor beads and biotinylated antibody specific to the mid region of Aβ (biotinylated 4G8) was used to react with the donor beads.
(§4) To obtain the values reported in Table 3c, the data were calculated as percentage of the maximum amount of amyloid Beta 42 measured in the absence of the test compound. The sigmoidal dose response curves were analyzed using non-linear regression analysis with percentage of the control plotted against the log concentration of the compound. A 4-parameter equation was used to determine the IC50.

Aβ42 [1] = test: Screening for γ-secretase-modulating activity, Method 1: Aβ42 sandwich ELISA on SKNBE2 cell media; conditions: SKNBE2 cells carrying APP 695 wild type
Experimental: as §1, with “Gibco” for “Invitrogen”, “31330-38)” for “10371-029)”, “acids.” for “acids, 1-glutamine 2 mM, Hepes 15 mM, penicillin 50 U/ml (units/ml) en streptomycin 50 μg/ml.”
The screening was performed using the assay as described in Citron et al (1997) Nature Medicine 3: 67. Briefly, cells were plated in a 96-well plate at about 10^5 cells/ml one day prior to addition of compounds. Compounds were added to the cells in Ultraculture (Lonza, BE12-725F) supplemented with 1% glutamine (Invitrogen, 25030-024) for 18 hours. The media were assayed by two sandwich ELISAs, for Aβ42 and Aβtotal. Toxicity of the compounds was assayed by WST-1 cell proliferation reagent (Roche, 1 644 807) according to the manufacturer's protocol.
To quantify the amount of Aβ42 in the cell supernatant, commercially available Enzyme-Linked-Immunosorbent-Assay (ELISA) kits were used (Innotest® β-Amyloid(1-42), Innogenetics N.V., Ghent, Belgium). The Aβ42 ELISA was performed essentially according to the manufacturer's protocol. Briefly, the standards (dilutions of synthetic Aβ1-42) were prepared in polypropylene Eppendorf with final concentrations of 8000 down to 3.9 pg/ml (1/2 dilution step). Samples, standards and blanks (100 μl) were added to the anti-Aβ42-coated plate supplied with the kit (the capture antibody selectively recognizes the C-terminal end of the antigen). The plate was allowed to incubate 3 h at 25° C. in order to allow formation of the antibody-amyloid complex. Following this incubation and subsequent wash steps a selective anti-Aβ-antibody conjugate (biotinylated 3D6) was added and incubated for a minimum of 1 hour in order to allow formation of the antibody-Amyloid-antibody-complex. After incubation and appropriate wash steps, a Streptavidine-Peroxidase-Conjugate was added, followed 30 minutes later by an addition of 3,3′,5,5′-tetramethylbenzidine (TMB)/peroxide mixture, resulting in the conversion of the substrate into a coloured product. This reaction was stopped by the addition of sulfuric acid (0.9 N) and the colour intensity was measured by means of photometry with an ELISA-reader with a 450 nm filter.
To obtain the values reported in Table 3a, the sigmoidal dose response curves were analysed by computerised curve-fitting, with percent of inhibition plotted against compound concentration. A 4-parameter equation (model 205) in XLfit was used to determine the IC50. The top and the bottom of the curve were fixed to 100 and 0, respectively, and the hill slope was fixed to 1. The IC50 represents the concentration of a compound that is required for inhibiting a biological effect by 50% (Here, it is the concentration where Aβ peptide level is reduced by 50%).
as §4, with “3b,” for “3c,”, “IC50. The values reported in Table 3b are averaged IC50 values.” for “IC50.”

Aβ42 [2] = test: Screening for γ-secretase-modulating activity, Method 2: Aβ42 Alphalisa on SKNBE2 cell supernatant; conditions: Method 2, Table 3c, SKNBE2 cells carrying APP 695 wild type, overnight incubation
Experimental: as §1, §2, §3, §4

[3] = Table 3a, 18 hours, XLfit, top/bottom fixed to 100 and 0, hill slope 1
[4] = Table 3b, non-linear regression of % of control, averaged IC50 values

| SMILES | IC50 (Aβtotal) | IC50 (Aβ42 [1]; [3]) | IC50 (Aβ42 [1]; [4]) | IC50 (Aβ42 [2]) | IC50 (Aβtotal; Homo sapiens) | IC50 (Aβ42 [2]; Homo sapiens) |
| --- | --- | --- | --- | --- | --- | --- |
| Cc1cc2c(nc(-c3ccc(F)cc3)n2C)c(Nc2ccc(-n3cc(C)nc3I)c(F)c2)n1 [Compound 154] | – | – | – | – | 560 nM | 19 nM |
| COc1nc(Nc2cccc3c2nc(-c2ccc(F)cc2)n3C)ccc1-n1cnc(C)n1 [Compound 161] | > 10000 nM | – | – | 7 nM | – | – |
| COc1nc(Nc2cccc3c2nc(-c2ccc(F)c(I)c2)n3C)ccc1-n1cnc(C)c1 [Compound 169] | > 10000 nM | – | – | 5 nM | – | – |
| COc1nc(Nc2cccc3c2nc(-c2cccc(F)c2)n3C)ccc1-n1cnc(C)c1 [Compound 171] | > 10000 nM | – | – | 27 nM | – | – |
| COc1nc(Nc2cccc3c2nc(-c2ccccc2C(F)(F)F)n3C)ccc1-n1cnc(C)c1 [Compound 172] | > 10000 nM | – | – | 23 nM | – | – |
| COc1nc(Nc2cccc3c2nc(-c2ccc(F)c(F)c2)n3C)ccc1-n1cnc(C)c1 [Compound 175] | > 10000 nM | – | – | 21 nM | – | – |
| COc1nc(Nc2cccc3c2nc(-c2cccc(F)c2F)n3C)ccc1-n1cnc(C)c1 [Compound 176] | > 10000 nM | – | – | 23 nM | – | – |
| COc1ccc(-c2nc3c(Nc4ccc(-n5cnc(C)c5)c(OC)n4)cccc3n2C)cc1 [Compound 178] | > 10000 nM | – | – | 23 nM | – | – |
| COc1ccc(F)c(-c2nc3c(Nc4ccc(-n5cnc(C)c5)c(OC)n4)cccc3n2C)c1 [Compound 180] | > 10000 nM | – | – | 18 nM | – | – |
| COc1ccc(-c2nc3c(Nc4ccc(-n5cnc(C)c5)c(OC)n4)cccc3n2C)c(F)c1 [Compound 182] | > 10000 nM | – | – | 39 nM | – | – |
| COc1nc(Nc2cccc3c2nc(-c2ccc(F)cc2C)n3C)ccc1-n1cnc(C)c1 [Compound 185] | > 10000 nM | – | – | 25 nM | – | – |
| COc1nc(Nc2cccc3c2nc(-c2ccc(F)cc2F)n3C)ccc1-n1cnc(C)c1 [Compound 190] | > 10000 nM | – | – | 26 nM | – | – |
| COc1nc(Nc2cccc3c2nc(-c2ccc(OC(F)(F)F)cc2)n3C)ccc1-n1cnc(C)c1 [Compound 191] | > 10000 nM | – | – | 18 nM | – | – |
| COc1ccc(-c2nc3c(Nc4ccc(-n5cnc(C)c5)c(OC)n4)cccc3n2C)c(C)c1 [Compound 194] | > 10000 nM | – | – | 22 nM | – | – |
| COc1nc(Nc2cccc3c2nc(-c2cccc(C#N)c2)n3C)ccc1-n1cnc(C)c1 [Compound 198] | > 10000 nM | – | – | 48 nM | – | – |
| COc1cc(Nc2cc(C3CC3)nc3c2nc(-c2ccc(F)cc2)n3C)ccc1-n1cnc(C)n1 [Compound 199] | > 10000 nM | – | – | 13 nM | – | – |
| COc1cc(Nc2ccnc3c2nc(-c2ccc(F)cc2)n3C)ccc1-n1cnc(C)n1 [Compound 200] | > 10000 nM | – | – | 40 nM | – | – |
| COc1nc(Nc2ccnc3c2nc(-c2ccc(F)cc2)n3C)ccc1-n1cnc(C)c1 [Compound 201] | > 10000 nM | – | – | 4 nM | – | – |
| COc1nc(Nc2cc(C)nc3c2nc(-c2ccc(F)cc2)n3C)ccc1-n1cnc(C)c1 [Compound 203] | > 10000 nM | – | – | 4 nM | – | – |
| COc1cc(Nc2ccc(-n3cnc(C)c3)c(F)c2)c2nc(-c3ccc(F)cc3)n(C)c2n1 [Compound 204] | > 10000 nM | – | – | 14 nM | – | – |
| Cc1cn(-c2ccc(Nc3ccnc4c3nc(-c3ccc(F)cc3)n4C)cc2F)cn1 [Compound 205] | > 10000 nM | – | – | 63 nM | – | – |

Further lines, results first:

| IC50 (Aβtotal) | IC50 (Aβ42 [1]; [3]) | IC50 (Aβ42 [1]; [4]) | IC50 (Aβ42 [2]) | IC50 (Aβtotal; Homo sapiens) | IC50 (Aβ42 [2]; Homo sapiens) | SMILES |
| --- | --- | --- | --- | --- | --- | --- |
| > 10000 nM | 106 nM | 117 nM | 417 nM | – | – | Cc1ncn(-c2ccc(Nc3cc(C(F)(F)F)cc4c3nc(-c3ccc(F)cc3)n4C)cc2)n1 [Compound 69] |
| > 10000 nM | > 3000 nM | > 3000 nM | 5890 nM | – | – | COc1cc(Nc2nccc3c2nc(CC2CC2)n3C)ccc1-n1ncnc1C [Compound 101] |
| 8130 nM | – | – | 234 nM | – | – | COc1cccc(-c2nc3c(Nc4ccc(-n5cnc(C)c5)c(OC)n4)cccc3o2)c1 [Compound 152] |
| 6460 nM | – | – | 12 nM | – | – | CCOc1cccc(-c2nc3c(Nc4ccc(-n5cnc(C)c5)c(F)c4)nc(C)cc3n2C)c1 [Compound 153] |
| > 10000 nM | – | – | 8 nM | – | – | Cc1cn(-c2ccc(Nc3nc(C)cc4c3nc(-c3ccc(F)c(Br)c3)n4C)cc2F)cn1 [Compound 155] |
| > 10000 nM | – | – | 166 nM | – | – | COc1cc(Nc2cncc3c2nc(-c2ccc(F)cc2)n3C)ccc1-n1cnc(C)n1 [Compound 158] |
| 7760 nM | – | – | 8 nM | – | – | COc1nc(Nc2cccc3c2nc(-c2ccc(C(F)(F)F)cc2)n3C)ccc1-n1cnc(C)c1 [Compound 168] |
| 9120 nM | – | – | 36 nM | – | – | COc1nc(Nc2cccc3c2nc(-c2ccccc2OC(F)(F)F)n3C)ccc1-n1cnc(C)c1 [Compound 170] |
| 7940 nM | – | – | 20 nM | – | – | COc1nc(Nc2cccc3c2nc(-c2cccc(N(C)C)c2)n3C)ccc1-n1cnc(C)c1 [Compound 173] |
| 8910 nM | – | – | 20 nM | – | – | COc1cccc(-c2nc3c(Nc4ccc(-n5cnc(C)c5)c(OC)n4)cccc3n2C)c1 [Compound 177] |
| 7940 nM | – | – | 11 nM | – | – | CCOc1cccc(-c2nc3c(Nc4ccc(-n5cnc(C)c5)c(OC)n4)cccc3n2C)c1 [Compound 179] |
| 9120 nM | – | – | 10 nM | – | – | COc1cc(-c2nc3c(Nc4ccc(-n5cnc(C)c5)c(OC)n4)cccc3n2C)cc(C(F)(F)F)c1 [Compound 183] |
| 8320 nM | – | – | 14 nM | – | – | COc1cc(F)cc(-c2nc3c(Nc4ccc(-n5cnc(C)c5)c(OC)n4)cccc3n2C)c1 [Compound 188] |
| 8910 nM | – | – | 13 nM | – | – | COc1nc(Nc2cccc3c2nc(-c2ccc(F)c(C(F)(F)F)c2)n3C)ccc1-n1cnc(C)c1 [Compound 192] |
| 7080 nM | – | – | 39 nM | – | – | COc1nc(Nc2cccc3c2nc(-c2ccccc2F)n3C)ccc1-n1cnc(C)c1 [Compound 193] |
| 6460 nM | – | – | 25 nM | – | – | COc1nc(Nc2cccc3c2nc(-c2cc(C(F)(F)F)ccc2C)n3C)ccc1-n1cnc(C)c1 [Compound 195] |
| 8510 nM | – | – | 19 nM | – | – | COc1nc(Nc2cccc3c2nc(-c2ccccc2)n3C)ccc1-n1cnc(C)c1 [Compound 196] |
| 8230 nM | – | – | 35 nM | – | – | COc1nc(Nc2cccc3c2nc(-c2ccc(N(C)C)cc2)n3C)ccc1-n1cnc(C)c1 [Compound 197] |
